{"source": "patent US20060100187A1", "about": "“Synergistic combinations of macrolide t-cell modulator or immunosuppressant and a retinoid” (priority 2003, published 2006)", "key": {"[1]": {"system": "DNFB-elicited allergic contact dermatitis (contact hypersensitivity reaction)", "conditions": "for Efficacy, global mean of differences in scores of untreated and treated test sites: erythema and induration scored 24 hours after DNFB challenge, 80 mg formulation topically at 30 minutes and 6 hours after challenge, 1% Elidel cream, 0.1% Zorac gel; for Efficacy %, single drug treatment with pimecrolimus set to 100%: relative to pimecrolimus/pimecrolimus, topical at 30 minutes and 6 hours after challenge, scored at 24 hours", "description": "12 days before elicitation of ACD, 17 male domestic pigs receive 500 μl of 10% 2,4-dinitrofluorobenzene (DNFB) dissolved in dimethylsulfoxide/acetone/olive oil (1:5:3 v/v/v) epicutaneously in divided volumes onto the base of both ears and onto both groins (100 μl/site) for sensitization. The challenge reaction is elicited with 15 μl of DNFB 1.0% on test sites (7 cm^2 in size) arranged on both sides of the shaved dorsolateral back.\nThe test sites on the right dorsolateral side are treated with 80 mg formulation twice whereas the left controlateral test sites remain untreated for comparison. The test sites are treated 30 minutes after challenge, followed by the second application at 6 hours of the same drug or, in case of combination, the other drug."}, "[2]": {"system": "allogeneic kidney transplantation", "conditions": "oral administration; cited from earlier work"}}}
{"compound": "CCOC(=O)c1ccc(C#Cc2ccc3c(c2)C(C)(C)CCS3)nc1", "note": "[tazarotene]", "values": [{"measurement": "Efficacy, global mean of differences in scores of untreated and treated test sites", "setting": "[1]", "result": 2.96}, {"measurement": "Efficacy %, single drug treatment with pimecrolimus set to 100%", "setting": "[1]", "result": 89, "unit": "%"}]}
{"compound": "{[1E-(1R,3R,4S)]}1R,9S,12S, 13R,14S,17R,18E,21S,23S,24R,25S,27R}-12-[2-(4-chloro-3-methoxycyclohexyl)-1-methylvinyl]-17-ethyl-1,14-dihydroxy-23,25-dimethoxy-13,19,21,27-tetramethyl-11, 28,dioxa-4-azatricyclo [22.3.1.0(4,9)]octacos-18-ene-2,3,10,16-tetraone [pimecrolimus]", "values": [{"measurement": "superiority in comparison with tazarotene/tazarotene treatment", "setting": "[1]; difference of relative efficacy %", "result": 11, "unit": "%"}, {"measurement": "Efficacy, global mean of differences in scores of untreated and treated test sites", "setting": "[1]", "result": 3.34}, {"measurement": "Efficacy %, single drug treatment with pimecrolimus set to 100%", "setting": "[1]", "result": 100, "unit": "%"}, {"measurement": "inhibition of the contact hypersensitivity reaction", "setting": "[1]; single drug treatment, two topical applications, scored 24 hours after challenge", "result": 57, "unit": "%"}]}
{"compound": "C=CC[C@@H]1/C=C(\\C)C[C@H](C)C[C@H](OC)[C@H]2O[C@@](O)(C(=O)C(=O)N3CCCC[C@H]3C(=O)O[C@H](/C(C)=C/[C@@H]3CC[C@@H](O)[C@H](OC)C3)[C@H](C)[C@@H](O)CC1=O)[C@H](C)C[C@@H]2OC", "note": "[tacrolimus]", "values": [{"measurement": "minimum effective dose (MED)", "setting": "[2]", "result": 14, "unit": "mg/kg"}]}
